From article PMC8612954 (Chemosphere, 2021)
Like-named read-outs stand apart in the source and are kept apart here.

Legend:
[1] = biological target: T1, bovine serum albumin (BSA) (Bos taurus, UniProt P02769); assay: Equilibrium dialysis; format: binding; settings: for f (fraction of bound PFAS) / KPW (protein/water partition coefficient): 37°C, standard error in parentheses; for f (fraction of bound PFAS): 10 µM BSA in PBS
[2] = biological target: T1, bovine serum albumin (BSA); assay: Fluorescence quenching of BSA by PFAS; format: binding; settings: for nHill (Hill coefficient, binding cooperativity): Hill model fit, 25°C and 35°C, independent of temperature; for shift in wavelength of maximum fluorescence emission of BSA: maximum shift on PFAS binding (Figure S5)
[3] = biological target: T1, bovine serum albumin (BSA); settings: ref Allendorf et al. (2019), cited from earlier work; for Ka (association constant): PFAS-BSA binding
serum albumin = settings: ref Bischel et al. (2011); cited from earlier work

T1 sequence (P02769 25-607): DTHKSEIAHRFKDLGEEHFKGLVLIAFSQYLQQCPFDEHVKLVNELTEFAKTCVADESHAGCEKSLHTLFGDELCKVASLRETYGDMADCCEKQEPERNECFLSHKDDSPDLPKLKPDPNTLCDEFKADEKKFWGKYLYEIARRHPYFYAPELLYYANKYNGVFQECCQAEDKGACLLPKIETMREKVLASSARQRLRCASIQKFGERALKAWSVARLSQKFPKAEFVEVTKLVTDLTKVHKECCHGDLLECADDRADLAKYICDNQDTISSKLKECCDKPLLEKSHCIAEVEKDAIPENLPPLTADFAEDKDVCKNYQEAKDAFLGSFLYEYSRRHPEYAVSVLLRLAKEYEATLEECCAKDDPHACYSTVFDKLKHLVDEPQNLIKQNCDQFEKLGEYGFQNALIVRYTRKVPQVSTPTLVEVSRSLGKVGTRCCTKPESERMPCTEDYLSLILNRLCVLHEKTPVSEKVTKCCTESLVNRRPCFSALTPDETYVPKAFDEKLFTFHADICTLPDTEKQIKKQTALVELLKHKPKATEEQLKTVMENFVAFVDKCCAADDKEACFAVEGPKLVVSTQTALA

SMILES | f (fraction of bound PFAS) [1] | KPW (protein/water partition coefficient) ([1]; PFAS:BSA molar ratio 2:1) | nHill (Hill coefficient, binding cooperativity) [2] | shift in wavelength of maximum fluorescence emission of BSA [2] | Ka (association constant) [3] | fa (fractional accessibility, modified Stern-Volmer equation) ([2]; 1.25 µM BSA, pH 7.4 PBS, values from Table S3) | f (fraction of bound PFAS) [3] | f (fraction of bound PFAS) (serum albumin) | KPW (protein/water partition coefficient) ([1]; PFAS:BSA molar ratio 0.1:1) | Kd [1] [µM]
O=C(O)C(F)(OC(F)(F)C(F)(F)C(F)(F)F)C(F)(F)F (stereo not shown) [Gen X, 2,3,3,3-tetrafluoro-2-(heptafluoropropoxy)propanoate] | 0.265 (0.006) | 0.07 (0.002) 10^5 | noncooperative | do not show marked shifts | 0.23 (0.05) 10^5 M^−1 |  |  |  |  | 
O=S(=O)(O)C(F)(F)C(F)(F)C(F)(F)C(F)(F)F [PFBS, perfluorobutanesulfonic acid] | 0.249 (0.064) | 0.07 (0.02) 10^5 | < 1 | do not show marked shifts | 1.1 (0.28) 10^5 M^−1 | ~ 0.3 | 0.44 | ≥ 0.99 |  | 
O=C(O)C(F)(F)C(F)(F)C(F)(F)C(F)(F)C(F)(F)C(F)(F)C(F)(F)C(F)(F)C(F)(F)F [PFDA, perfluorodecanoic acid] | 0.983 (0.004) |  | < 1 | −10 nm | 36 (3.1) 10^5 M^−1 |  |  |  | 12.66 (3.23) 10^5 | 
O=S(=O)(O)C(F)(F)C(F)(F)C(F)(F)C(F)(F)C(F)(F)C(F)(F)F [PFHxS, perfluorohexanesulfonic acid] | 0.842 (0.008) |  | positive binding cooperativity | −10 nm | 44 (3.5) 10^5 M^−1 |  | 0.62 | ≥ 0.99 | 1.11 (0.06) 10^5 | 1.54
O=C(O)C(F)(F)C(F)(F)C(F)(F)C(F)(F)C(F)(F)C(F)(F)C(F)(F)C(F)(F)F [PFNA, perfluorononanoic acid] | 0.975 (0.005) |  | noncooperative | −13 nm | 14 (2.2) 10^5 M^−1 |  |  |  | 8.52 (1.62) 10^5 | 
O=C(O)C(F)(F)C(F)(F)C(F)(F)C(F)(F)C(F)(F)C(F)(F)C(F)(F)F [PFOA, perfluorooctanoic acid] | 0.755 (0.038) |  | positive binding cooperativity |  | 11 (1.1) 10^5 M^−1 |  | 0.44 | ≥ 0.99 | 0.66 (0.13) 10^5 | 2.65
O=S(=O)(O)C(F)(F)C(F)(F)C(F)(F)C(F)(F)C(F)(F)C(F)(F)C(F)(F)C(F)(F)F [PFOS, perfluorooctanesulfonic acid] | 0.942 (0.004) |  | positive binding cooperativity | −7 nm | 32 (4.9) 10^5 M^−1 |  |  |  | 3.39 (0.27) 10^5 | 
